Measured values from the supplement of paper PMC10307832.

What was measured:
Experiment in all cases: relative viability (nuclei count vs DMSO), 5 days (fraction); higher = more cells survive
Selisistat = compound: C1CC(C2=C(C1)C3=C(N2)C=CC(=C3)Cl)C(=O)N [Selisistat]
Summary of the method: (§1)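 Viability here means nuclei in treated wells divided by nuclei in vehicle wells, reported as the median across plates. Only plates with control CV below 25% and at least one doubling passed. Lung cancer cell lines in 1536-well plates were exposed to five √10-spaced library-drug doses for 5 days and counted from 4× Hoechst images in MetaXpress.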

Serdemetan = compound: c1ccc2c(CCNc3ccc(Nc4ccncc4)cc3)c[nH]c2c1 [Serdemetan]
Summary of the method: as §1

Selisistat + Pictilisib = compound: C1CC(C2=C(C1)C3=C(N2)C=CC(=C3)Cl)C(=O)N [Selisistat] + CS(=O)(=O)N1CCN(Cc2cc3nc(-c4cccc5[nH]ncc45)nc(N4CCOCC4)c3s2)CC1 [Pictilisib] (partner 1 µM)
Summary of the method: (§2)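 Five library-drug doses in √10 steps were combined with a fixed anchor-drug dose, or a single drug was given alone, by pin tool to lung cancer cell lines in 1536-well plates the day after seeding. Nuclei were stained and counted after 5 days. Relative viability is the nuclei count in treated wells over that in vehicle wells, taken as the median of duplicate plates.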

Selisistat + Alpelisib = compound: C1CC(C2=C(C1)C3=C(N2)C=CC(=C3)Cl)C(=O)N [Selisistat] + Cc1nc(NC(=O)N2CCC[C@H]2C(N)=O)sc1-c1ccnc(C(C)(C)C(F)(F)F)c1 [Alpelisib] (partner 2 µM)
Summary of the method: as §2

UMC-11
relative viability (Selisistat; 0.4 µM): 1
relative viability (Selisistat; 1.265 µM): 0.962
relative viability (Selisistat; 4 µM): 0.883
relative viability (Selisistat; 12.65 µM): 0.978
relative viability (Selisistat; 40 µM): 1.06
relative viability (Serdemetan; 0.04 µM): 0.935
relative viability (Serdemetan; 0.1265 µM): 1.01
relative viability (Serdemetan; 0.4 µM): 0.902
relative viability (Serdemetan; 1.265 µM): 0.661
relative viability (Serdemetan; 4 µM): 0.924
relative viability (Selisistat + Pictilisib; first compound 0.4 µM): 0.793
relative viability (Selisistat + Pictilisib; first compound 1.265 µM): 0.784
relative viability (Selisistat + Pictilisib; first compound 4 µM): 0.618
relative viability (Selisistat + Pictilisib; first compound 12.65 µM): 0.742
relative viability (Selisistat + Pictilisib; first compound 40 µM): 0.809
relative viability (Selisistat + Alpelisib; first compound 0.4 µM): 1.19
relative viability (Selisistat + Alpelisib; first compound 1.265 µM): 0.99
relative viability (Selisistat + Alpelisib; first compound 4 µM): 1.04
relative viability (Selisistat + Alpelisib; first compound 12.65 µM): 0.994
relative viability (Selisistat + Alpelisib; first compound 40 µM): 0.887
